Where “and” joins values, the source holds several entries; their conditions need not be identical. Equal entries are not always repeated.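 A five-concentration, 48-hour dose response in 96-well plates underlies each endpoint, interpolated linearly between surrounding concentrations. At the GI50, growth is halved. Definition used: TGI = concentration required for complete inhibition of growth.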

What all share (test): NCI-60 cell line screen, 48 h
The test system of assay [1] is MCF7 breast.
The test system of assay [2] is U251 CNS.
Assay [3] concerns SR leukemia.
Assay [4] concerns NCI/ADR-RES ovarian.
Assay [5] relates to OVCAR-8 ovarian.
In assay [6] the test system is 786-0 renal.
Assay [7] relates to HOP-92 NSCLC.
The subject of assay [8] is SNB-75 CNS.
In assay [9] the test system is NCI-H23 lung.
Assay [10] has as its system RXF 393 renal.
Assay [11] has as its system HCT-116 colon.

For `O=C(CCl)Nc1ccc(C(=O)N/N=C/c2ccc(Cl)cc2)cc1`, the GI50 in assay [1] is 10 µM; in [4] it was 1.5 µM; in [9], 1.62 µM; in assay [10], 2.09 µM; in assay [11] it was 1.57 µM. Further, the TGI in assay [1] was 22.6 µM; in assay [2], 3.61 µM and 3.24 µM; in assay [3] it was 3.93 µM; in assay [4], 8 µM and 3.38 µM; in assay [5], 5.29 µM and 6.97 µM; in [6], 3.09 µM and 3.12 µM. Further, the TGI in assay [7] was 4.53 µM; in assay [8], 30.5 µM; in assay [9], 3.19 µM and 6.87 µM; in assay [10], 2.39 µM and 6.52 µM; in assay [11], 3.18 µM and 3.7 µM.

In the case of `N#Cc1ccnc(C(=O)N2CCCC2C(=O)O)c1` (centres undefined), the TGI in assay [1], in assay [2], in assay [3], in [4], in [5] and in assay [6] was > 100 µM throughout. Also, the TGI in [7], in assay [8], in assay [9], in assay [10] and in assay [11] was > 100 µM in each case.

With `O=c1[nH]nc(-c2ccc([N+](=O)[O-])cc2)[nH]1`, the TGI in assay [1], in [2], in assay [3], in assay [4], in assay [5] and in assay [6] was > 100 µM throughout. For the same molecule, the TGI in assay [7], in assay [8], in assay [9], in assay [10] and in assay [11] was > 100 µM throughout.

For the molecule `Fc1cccc(F)c1C1SCc2nc3cc(Cl)ccc3n21` (centres undefined), the TGI in assay [1] was 34 µM; in [2], > 31.6 µM; in assay [3], 65.7 µM; in assay [4], > 100 µM; in assay [5], > 100 µM; in [6], > 71.1 µM. In addition, the TGI in [7] is > 100 µM; in [8] it was > 100 µM; in [9], > 100 µM; in assay [10], > 100 µM; in [11] it was 37 µM.

For the molecule `O=C(O)C12C3C4(C(=O)O)C1C1(C(=O)O)C2C3(C(=O)O)C41` (centres undefined), the TGI in assay [1], in assay [2], in assay [3], in [4], in assay [5] and in assay [6] was > 100 µM throughout. Further, the TGI in [7], in [8], in assay [9] and in assay [11] was > 100 µM each time.

As to `CC(C)(C)C#CI1OC(=O)c2ccccc21`, the TGI in assay [1] was 15.4 µM; in assay [2], 11.2 µM; in assay [3] it was 3.74 µM; in [4], > 45.4 µM; in assay [5], 23.3 µM; in assay [6] it was 11.5 µM. Moreover, the TGI in assay [7] worked out at 5.78 µM; in assay [8] it was 16 µM; in assay [9] it was 15.3 µM; in [10] it was 30.4 µM; in assay [11], 6.82 µM.

As for `Cn1c2ccccc2c2c3c(=O)[nH][nH]c(=O)c3c3c4ccccc4n(C)c3c21`, the TGI was > 100 µM in [1]; > 100 µM in assay [2]; 0.252 µM in assay [3]; > 100 µM in assay [4]; > 100 µM in assay [5]; > 100 µM in assay [6]. Moreover, the TGI in [7], in assay [8], in assay [9], in [10] and in assay [11] was > 100 µM each time.

With `COC(=O)Cc1c2n(c3ccccc13)C(=O)N1c3ccccc3C(CC(=O)OC)C21` (centres undefined), the TGI in [1], in [2], in assay [3], in assay [4], in assay [5] and in [6] was > 100 µM in each case. Besides, the TGI in [7] is 27.5 µM; in assay [8], 28.5 µM; in assay [9], 64.6 µM; in [10], 64 µM; in assay [11], > 100 µM.

In the case of `O=C1c2c(Br)sc(Br)c2[C@H]2OC(=S)N[C@@H]12`, the TGI was 23.2 µM in [1]; 7.08 µM in [2]; 5.19 µM in assay [3]; 31.6 µM in assay [4]; 12 µM in [5]; 27 µM in [6]. Further, the TGI in assay [7] came out at 27.3 µM; in [8] it was 31 µM; in [9], 15.1 µM; in [10] it was 8.8 µM; in [11] it was 7.6 µM.

On to `Cc1ccc2nc(Nc3ccccc3C)c(Nc3ccccc3C)nc2c1`, for which the TGI in assay [1] was > 100 µM; in assay [2], > 70 µM; in [3], > 100 µM; in assay [4], > 100 µM; in assay [5] it was > 100 µM; in assay [6], > 100 µM. Besides, the TGI was 54.1 µM in assay [7]; > 96.6 µM in assay [8]; 45.6 µM in assay [9]; > 58.1 µM in [10]; 40.2 µM in assay [11].

For `CC(Br)CN(CC(C)Br)c1ccc2c(c1)Cc1ccccc1-2` (centres undefined), the TGI is 19.6 µM in [1]; 22.7 µM in assay [2]; 14.9 µM in assay [3]; 38.4 µM in assay [4]; 25.2 µM in [5]; 23.1 µM in assay [6]. Further, the TGI in assay [7] was determined as 20.9 µM; in assay [8] it was 25.2 µM; in [9], 26.9 µM; in assay [10] it was 28 µM; in assay [11], 23.8 µM.

Take `CCCCCc1cc(CCCC)sc1-c1ccco1`: the TGI in assay [1], in [2], in assay [3], in assay [4], in [5] and in [6] was > 100 µM each time. In addition, the TGI in assay [7] is > 100 µM; in assay [8], > 100 µM; in assay [9], > 100 µM; in [10] it was > 100 µM; in [11], > 73 µM.

For the molecule `C[N+]1(CCCCN2c3ccccc3Sc3cc(N=[N+]=[N-])ccc32)CCN(C(=O)CCNC(=O)Cc2ccc(C(=O)c3ccccc3)cc2)CC1`, the TGI was 68 µM in [1]; > 87.3 µM in [2]; 65.5 µM in [3]; > 91.1 µM in [4]; > 100 µM in assay [5]; > 67.5 µM in assay [6]. Moreover, the TGI in assay [7] was 40.5 µM; in [8] it was 43.3 µM; in assay [9], > 82.4 µM; in assay [10], > 80 µM; in assay [11], > 75.4 µM.

As to `COc1cc2c3cc1Oc1cc(ccc1O)C[C@@H]1c4c(cc(OC)c(O)c4Oc4ccc(cc4)C[C@@H]3[N+](C)(C)CC2)CC[N+]1(C)C`, the TGI in [1], in [2], in assay [3], in assay [4], in [5] and in assay [6] was > 100 µM each time. Besides, the TGI in [7] is > 100 µM; in assay [9], > 100 µM; in [10], 47 µM; in assay [11] it was > 100 µM.

Consider `COc1ccccc1Cn1c2c(c3cc(O)ccc31)C(=O)c1ccccc1C2=O`, for which the TGI in assay [1] was 96.7 µM; in [2] it was 64.9 µM; in assay [3], > 100 µM; in [4], 40.4 µM; in assay [5] it was 61.9 µM; in assay [6] it was 45.5 µM. In addition, the TGI in [8] was 58.8 µM; in assay [9], 95.8 µM; in [10], 14.3 µM; in assay [11], > 100 µM.

Take `O=C1c2cccnc2C(=O)c2c1nc1ccccc1c2-c1ccc2c3c(nc4ccccc42)C(=O)c2cccnc2-c13`: the TGI in assay [1] was 8.05 µM; in assay [2], 9.01 µM; in assay [3], 0.34 µM; in [4], 5.16 µM; in [5], 2.59 µM; in assay [6], 1.91 µM. The TGI was determined as 30.5 µM in assay [7]; 8.28 µM in assay [8]; 2.67 µM in assay [9]; 9.68 µM in assay [10]; 1.73 µM in assay [11].

`Fc1ccc(OCc2ccc3nc(-c4ccccc4)c(Cl)nc3c2)cc1`: the TGI in [1] was > 100 µM; in [2], 39 µM; in assay [3] it was 40.8 µM; in assay [4] it was > 100 µM; in assay [5], > 100 µM; in [6], 56.9 µM. Also, the TGI in assay [7] was 50.1 µM; in assay [8] it was 42.8 µM; in assay [9], > 100 µM; in assay [11], > 100 µM.

In the case of `C=CCN(c1cc(OC)c2[nH]c(C(=O)O)c(C)c2c1[N+](=O)[O-])S(C)(=O)=O`, the TGI in [1], in [2], in assay [3], in assay [4], in assay [5] and in [6] was > 100 µM each time. The TGI in assay [8], in assay [9], in assay [10] and in assay [11] was > 100 µM in each case.

With `CCOP(=O)(COCCn1nc(Br)c(=O)[nH]c1=O)OCC`, the TGI in [1], in assay [2], in [3], in assay [4], in assay [5] and in [7] was > 100 µM throughout. Also, the TGI in assay [8], in assay [9] and in assay [10] was > 100 µM each time.

For the molecule `COC(=O)c1ccc2cc(O)ccc2c1`, the TGI in [1] was > 100 µM; in assay [2] it was > 100 µM; in [3], 81.9 µM; in assay [4], > 100 µM; in assay [5] it was > 100 µM; in [6] it was > 100 µM. For the same molecule, the TGI in assay [7], in [9], in assay [10] and in [11] was > 100 µM each time.

For the molecule `CN(C)C(=O)/N=C1\SC(=Nc2ccccc2)C(=Nc2ccccc2)N1c1ccc([N+](=O)[O-])cc1`, the TGI in [1], in [2], in assay [3], in assay [4], in assay [5] and in assay [8] was > 100 µM in each case. The TGI in assay [9], in [10] and in [11] was > 100 µM in each case.

Consider `C=C1C[C@@H]2CC[C@@]34CC5O[C@H]6C(O[C@H]7CC[C@H](CC(=O)O[C@@H]8[C@@H](C)[C@@H]9O[C@@H]%10C[C@]%11(C[C@@H]%12O[C@]%13(C[C@H](C)[C@@H]%14O[C@@H]%15CC(C(COC(C)=O)OC(C)=O)O[C@@H]%15C[C@@H]%14O%13)C[C@H](C)[C@@H]%12O%11)O[C@@H]%10C[C@@H]9O[C@H]8CC8O[C@@H](CC[C@@H]1O2)C[C@@H](C)C8(O)CO)O[C@@H]7[C@@H]6O3)[C@H]5O4` (some centres undefined), for which the TGI in assay [1], in assay [2], in assay [3], in [4], in assay [5] and in assay [6] was > 1 µM throughout. Besides, the TGI is > 1 µM in assay [7], > 1 µM in assay [8], 0.997 µM in [9] and > 1 µM in [11].

With `Clc1sc(Cl)c2c1[C@H](Br)C[C@@H]2Cl`, the TGI in [1] turned out to be 50.8 µM; in assay [2], 83.8 µM; in assay [3], 39.5 µM; in assay [4], 44.2 µM; in assay [5], 99 µM; in assay [6] it was 99.1 µM. Besides, the TGI in [8] was > 100 µM; in assay [9], 43.2 µM; in assay [10], 87.6 µM; in assay [11] it was 65.9 µM.

As for `CN1C2CCC1C(CO)C(=O)C2` (centres undefined), the TGI in assay [1] is 56.5 µM; in assay [2] it was > 100 µM; in [3], 75.7 µM; in [4] it was > 100 µM; in assay [5], > 100 µM; in [7] it was > 100 µM. Besides, the TGI in assay [8], in assay [9] and in [10] was > 100 µM throughout.

As for `CCC1(c2ccc(OC)c(OC)c2)CCN2C(=O)C(O)CC21` (centres undefined), the TGI in assay [1], in assay [2], in assay [3], in assay [4], in assay [6] and in [8] was > 100 µM throughout. The TGI in assay [9], in assay [10] and in [11] was > 100 µM in each case.

Values taken from PubChem BioAssay (NCI).
